The record followed here is EP0460488B1, “Sulfur-containing heterocyclic compounds” (Takeda Chemical Industries, Ltd., priority 1990, dated 1991).

This test concerns bone resorption. In words: Study on bone resorption inhibition: 45Ca release from cultured rat fetal bones (method of Raisz). Type of test: cell-based, Sprague-Dawley rat. To be noted: rat fetal bone culture, 2 days with test compound, mean of 5 bones, test concentration not given; for ^45Ca release (% to control): ratio of treatment group to control; for 45Ca release (% to control): description for DK (own example numbering). The protocol:
Bone resorption inhibitory activity was determined according to the method of Raisz [Journal of Clinical Investigation (J. Clin. Invest.) 44, 103-116 (1965)].
(§1) That is, a Sprague-Dawley rat at day 19 of pregnancy was subcutaneously dosed with 50 µCi of 45Ca (a radioisotope of calcium, in CaCl2). On the next day, the animal was laparotomized and the fetuses were removed aseptically. The right and left […] (radii and ulnae) of each rat fetus were dissected from the body under the dissection microscope. The connective tissue and cartilages were removed as far as possible to prepare bone culture specimens. Each piece of bone was incubated in 0.6 ml of BGJb medium (Fitton-Jackson modification [the tradename owned by GIBCO Laboratories, U.S.A.]) containing 2 mg/ml of bovine serum albumin at 37°C for 24 hours. Then, incubation was carried out for additional two days in the above-mentioned medium. The radioactivities of 45Ca in the culture medium and bone were determined and the ratio (%) of 45Ca released from the bone to the medium was calculated according to the following formula. A =(B)/(B + C)x 100 [formula] A = ratio (%) of ^45Ca released from the bone to the medium B = ^45Ca count in the medium C = ^45Ca count in the bone
The bones from the fetuses of the same litter were similarly incubated without addition of the test compound for two days and served as controls.
The values for 5 bones per group were expressed in mean. The ratio (%) of this value for the treatment group to the control value was determined.
as §1, with “of ^45Ca” for “of 45Ca”

In the case of `COc1cc2c(cc1OC)C(=O)CSC(C(=O)Nc1nc(-c3ccccc3)cs1)C2` (centres unmarked) [Example 47], the “^45Ca release (% to control)” value is recorded as 69 % to control.
Turning to `O=C1CSC(C(=O)Nc2ccc(Cl)cc2)Cc2ccc(Cl)cc21` (centres unmarked) [Example 48], the “^45Ca release (% to control)” value is 68 % to control.
Same read-out and setting: the value for `Cc1ccc2c(c1)C(=O)CSC(C(=O)Nc1ccc(Cl)cc1)C2` (centres unmarked) [Example 50] was 61 % to control.
For the molecule `Cc1ccc2c(c1)C(=O)CSC(C(=O)N(C)Cc1ccccc1)C2` (centres unmarked) [Example 54], the “^45Ca release (% to control)” value is reported as 63 % to control.
In the case of `COc1cc2c(cc1OC)C(=O)CSC(C(=O)Nc1nc(-c3ccccc3)cs1)C2` (centres unmarked) [compound 25], the “45Ca release (% to control)” value is recorded as 69 % to control.
In the case of `O=C1CSC(C(=O)Nc2ccc(Cl)cc2)Cc2ccc(Cl)cc21` (centres unmarked) [compound 26], the “45Ca release (% to control)” value is given as 68 % to control.
`Cc1ccc2c(c1)C(=O)CSC(C(=O)Nc1ccc(Cl)cc1)C2` (centres unmarked) [compound 28]: the “45Ca release (% to control)” value is 61 % to control.
For the molecule “methyl trans-4,7-dimethyl-5-oxo-1,2,4,5-tetrahydro-3-benzothiepine-2-carboxylate [Reference Example 32]”, the “45Ca release (% to control)” value was 63 % to control.
